Data as given in ChEMBL document CHEMBL1201862, “PubChem BioAssay data set” (2004).
Active and inactive are the calls of the source.

Key:
[1] = biological target: T1, Cysteine protease ATG4B (Homo sapiens, UniProt Q9Y4P1); assay type: functional;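 further: Fluorescence-based dose-response confirmation assay measuring inhibition of ATG4B activity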
T1 sequence (Q9Y4P1 whole entry): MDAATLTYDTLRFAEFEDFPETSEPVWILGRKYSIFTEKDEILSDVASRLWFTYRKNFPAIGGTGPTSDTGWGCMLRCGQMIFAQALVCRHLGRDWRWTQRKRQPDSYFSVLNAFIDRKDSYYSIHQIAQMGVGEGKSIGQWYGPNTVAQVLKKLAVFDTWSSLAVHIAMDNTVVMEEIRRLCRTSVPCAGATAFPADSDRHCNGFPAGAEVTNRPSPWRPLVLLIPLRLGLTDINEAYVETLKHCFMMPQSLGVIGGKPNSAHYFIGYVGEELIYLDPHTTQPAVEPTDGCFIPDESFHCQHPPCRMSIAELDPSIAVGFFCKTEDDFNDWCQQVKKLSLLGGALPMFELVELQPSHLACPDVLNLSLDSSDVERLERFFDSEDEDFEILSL

[2] = biological target: Large T antigen (Simian virus 40, UniProt P03070); assay type: functional, Betapolyomavirus macacae;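 further: Confirmatory-stage PubChem screen for compounds that inhibit SV40 T antigen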
Large T antigen, sequence (P03070 whole entry): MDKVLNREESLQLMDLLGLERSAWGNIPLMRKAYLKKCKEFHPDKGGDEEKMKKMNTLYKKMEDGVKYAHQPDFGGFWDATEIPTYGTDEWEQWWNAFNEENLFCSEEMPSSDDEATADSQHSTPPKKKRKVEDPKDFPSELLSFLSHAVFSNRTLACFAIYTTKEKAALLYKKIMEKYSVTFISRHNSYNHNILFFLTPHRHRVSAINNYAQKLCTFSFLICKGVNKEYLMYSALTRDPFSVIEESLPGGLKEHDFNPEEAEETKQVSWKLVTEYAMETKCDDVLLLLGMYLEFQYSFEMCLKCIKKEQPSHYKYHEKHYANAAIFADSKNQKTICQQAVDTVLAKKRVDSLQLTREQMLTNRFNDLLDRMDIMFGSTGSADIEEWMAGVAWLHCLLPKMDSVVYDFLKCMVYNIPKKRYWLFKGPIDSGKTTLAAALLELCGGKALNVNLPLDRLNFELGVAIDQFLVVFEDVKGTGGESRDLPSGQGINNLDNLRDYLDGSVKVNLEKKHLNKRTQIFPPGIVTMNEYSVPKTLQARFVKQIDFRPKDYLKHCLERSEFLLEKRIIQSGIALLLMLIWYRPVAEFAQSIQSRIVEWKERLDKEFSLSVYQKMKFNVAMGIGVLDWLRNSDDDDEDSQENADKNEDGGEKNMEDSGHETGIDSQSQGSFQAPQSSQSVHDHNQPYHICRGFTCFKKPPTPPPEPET

[3] = biological target: T2, Hexokinase HKDC1 (Homo sapiens, UniProt Q2TB90); experiment: inhibition of HKDC1 glucose phosphorylation – biochemical, W721R variant, dose response (AID 504729); assay type: functional
T2 sequence (Q2TB90 whole entry): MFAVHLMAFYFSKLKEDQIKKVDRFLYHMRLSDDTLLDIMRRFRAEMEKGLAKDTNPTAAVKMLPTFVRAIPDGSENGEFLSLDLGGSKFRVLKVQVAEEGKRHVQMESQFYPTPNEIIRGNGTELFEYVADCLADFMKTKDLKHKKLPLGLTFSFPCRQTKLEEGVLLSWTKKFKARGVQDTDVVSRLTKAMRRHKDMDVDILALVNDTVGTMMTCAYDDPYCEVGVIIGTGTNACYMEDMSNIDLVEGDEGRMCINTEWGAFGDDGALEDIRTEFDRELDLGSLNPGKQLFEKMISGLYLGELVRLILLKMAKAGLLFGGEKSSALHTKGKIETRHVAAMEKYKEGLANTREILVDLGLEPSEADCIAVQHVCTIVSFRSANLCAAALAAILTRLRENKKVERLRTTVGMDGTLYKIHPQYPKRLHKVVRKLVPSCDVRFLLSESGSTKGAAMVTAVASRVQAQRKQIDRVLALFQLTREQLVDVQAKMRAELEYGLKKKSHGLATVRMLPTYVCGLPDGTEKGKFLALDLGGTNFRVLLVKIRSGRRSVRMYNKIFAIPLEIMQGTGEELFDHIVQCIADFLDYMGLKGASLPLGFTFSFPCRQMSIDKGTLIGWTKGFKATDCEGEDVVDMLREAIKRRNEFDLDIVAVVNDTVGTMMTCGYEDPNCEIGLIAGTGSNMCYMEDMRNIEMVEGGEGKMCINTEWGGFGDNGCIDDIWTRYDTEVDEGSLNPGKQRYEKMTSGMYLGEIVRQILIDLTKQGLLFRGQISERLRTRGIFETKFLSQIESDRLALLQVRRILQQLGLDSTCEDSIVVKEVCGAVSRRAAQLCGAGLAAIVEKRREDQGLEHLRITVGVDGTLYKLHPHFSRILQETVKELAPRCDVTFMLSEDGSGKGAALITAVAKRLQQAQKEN

[4] = biological target: Phospholipase A2 (Homo sapiens, UniProt P04054); assay type: functional;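 further: confirmatory dose-response counterscreen on phospholipase A2, testing hits that came from an ultra-high-throughput screen for ATG4B inhibitors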
Phospholipase A2, sequence (P04054 whole entry): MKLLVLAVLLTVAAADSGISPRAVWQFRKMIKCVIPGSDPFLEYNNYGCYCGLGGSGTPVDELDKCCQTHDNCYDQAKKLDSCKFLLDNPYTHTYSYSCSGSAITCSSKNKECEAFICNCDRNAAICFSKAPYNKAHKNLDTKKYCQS

[5] = biological target: DNA (cytosine-5)-methyltransferase 1 (Homo sapiens, UniProt P26358); experiment: inhibition of DNA methylation by DNMT1 – biochemical, fluorescent molecular beacon, confirmation (AID 602386); assay type: functional
DNA (cytosine-5)-methyltransferase 1, sequence (P26358 whole entry): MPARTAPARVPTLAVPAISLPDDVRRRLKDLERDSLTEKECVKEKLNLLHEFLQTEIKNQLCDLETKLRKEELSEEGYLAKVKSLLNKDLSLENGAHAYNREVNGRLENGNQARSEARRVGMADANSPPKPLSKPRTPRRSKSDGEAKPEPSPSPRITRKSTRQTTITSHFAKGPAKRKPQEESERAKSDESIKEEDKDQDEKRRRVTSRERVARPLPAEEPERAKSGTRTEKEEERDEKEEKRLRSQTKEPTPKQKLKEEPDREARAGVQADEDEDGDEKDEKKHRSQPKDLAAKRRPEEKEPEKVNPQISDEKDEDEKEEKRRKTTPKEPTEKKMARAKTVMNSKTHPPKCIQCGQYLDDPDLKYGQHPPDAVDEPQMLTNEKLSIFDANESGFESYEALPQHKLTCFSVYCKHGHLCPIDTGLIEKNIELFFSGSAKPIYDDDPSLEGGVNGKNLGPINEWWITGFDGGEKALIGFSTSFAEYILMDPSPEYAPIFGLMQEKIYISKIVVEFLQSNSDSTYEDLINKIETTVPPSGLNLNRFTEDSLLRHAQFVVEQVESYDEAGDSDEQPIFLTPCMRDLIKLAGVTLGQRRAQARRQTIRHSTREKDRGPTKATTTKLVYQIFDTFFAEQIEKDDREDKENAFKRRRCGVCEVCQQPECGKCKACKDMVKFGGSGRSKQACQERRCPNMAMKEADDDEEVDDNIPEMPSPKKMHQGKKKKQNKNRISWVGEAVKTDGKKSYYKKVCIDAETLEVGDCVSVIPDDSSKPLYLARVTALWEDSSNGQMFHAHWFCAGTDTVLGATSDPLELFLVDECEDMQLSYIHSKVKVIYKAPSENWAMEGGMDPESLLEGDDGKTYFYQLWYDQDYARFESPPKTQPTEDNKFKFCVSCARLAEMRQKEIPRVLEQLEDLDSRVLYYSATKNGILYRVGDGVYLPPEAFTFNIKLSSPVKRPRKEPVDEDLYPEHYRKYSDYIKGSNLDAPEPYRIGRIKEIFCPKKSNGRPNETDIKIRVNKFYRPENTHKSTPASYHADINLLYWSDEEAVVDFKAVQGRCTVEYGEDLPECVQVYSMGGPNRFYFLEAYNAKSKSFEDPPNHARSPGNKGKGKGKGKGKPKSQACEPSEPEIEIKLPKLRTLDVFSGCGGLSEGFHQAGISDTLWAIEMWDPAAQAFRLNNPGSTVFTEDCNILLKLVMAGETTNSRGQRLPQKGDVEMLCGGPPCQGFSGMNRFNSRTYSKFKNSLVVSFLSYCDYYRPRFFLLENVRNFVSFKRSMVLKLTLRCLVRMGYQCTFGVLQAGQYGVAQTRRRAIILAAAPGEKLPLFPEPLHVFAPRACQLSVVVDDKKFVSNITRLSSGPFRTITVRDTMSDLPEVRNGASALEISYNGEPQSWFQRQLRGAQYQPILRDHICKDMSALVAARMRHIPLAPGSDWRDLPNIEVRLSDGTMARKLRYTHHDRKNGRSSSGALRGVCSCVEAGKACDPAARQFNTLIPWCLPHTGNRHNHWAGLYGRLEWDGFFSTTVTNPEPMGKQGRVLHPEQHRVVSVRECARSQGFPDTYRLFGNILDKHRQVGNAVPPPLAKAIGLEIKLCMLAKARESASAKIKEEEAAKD

[6] = reduction of Shn3 3'UTR-driven luciferase in osteoblasts – cell-based, Clone20 osteoblasts, firefly luciferase, cherry-picked, dose response (AID 624132); assay type: functional;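 further: firefly luciferase luminescence from reporter carrying the Shn3 3'UTR in osteoblasts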
[7] = biological target: Beta Lactamase (Pseudomonas aeruginosa, UniProt Q932Y6); experiment: BLA reporter interference, concentration series – BLA reporter cells, FRET fluorescence, artefact control for TLR9-MyD88 binding inhibitor project, dose response (AID 588341); assay type: cell-based;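 further: cell based assay in CHO-K1 cells stably expressing beta-lactamase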
Beta Lactamase, sequence (Q932Y6 whole entry, the tested form may be a part): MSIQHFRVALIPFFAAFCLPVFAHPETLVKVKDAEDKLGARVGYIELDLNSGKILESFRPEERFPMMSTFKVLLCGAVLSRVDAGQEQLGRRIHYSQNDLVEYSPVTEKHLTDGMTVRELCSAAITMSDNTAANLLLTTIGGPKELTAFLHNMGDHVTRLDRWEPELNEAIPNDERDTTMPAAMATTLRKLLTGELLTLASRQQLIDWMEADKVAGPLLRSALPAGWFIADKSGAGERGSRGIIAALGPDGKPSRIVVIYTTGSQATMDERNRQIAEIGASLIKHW

[8] = test system: CHO; experiment: CHO cell viability loss, potency – luminescence, cytotoxicity control for TLR9-MyD88 binding inhibitor project, dose response (AID 588339); assay type: functional, cell-based, hamster; conditions: Cricetulus griseus;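 further: CHO cells stably coexpressing TLR9 and MyD88 fusions from primary screen; compound exposure lasted 48 hours before viability readout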
[9] = loss of viability in HepG2 cells – cell-based, CellTiter-Glo, cherry-picked, cytotoxicity control for Shn3 inhibitor project, dose response (AID 624134); assay type: functional
[10] = biological target: Beta-2 adrenergic receptor (Homo sapiens, UniProt P07550); experiment: ADRB2 activation measured by internalization – cell-based, FAP fluorogen, flow cytometry, cherry pick 1, dose response (AID 588763); assay type: functional
Beta-2 adrenergic receptor, sequence (P07550 whole entry): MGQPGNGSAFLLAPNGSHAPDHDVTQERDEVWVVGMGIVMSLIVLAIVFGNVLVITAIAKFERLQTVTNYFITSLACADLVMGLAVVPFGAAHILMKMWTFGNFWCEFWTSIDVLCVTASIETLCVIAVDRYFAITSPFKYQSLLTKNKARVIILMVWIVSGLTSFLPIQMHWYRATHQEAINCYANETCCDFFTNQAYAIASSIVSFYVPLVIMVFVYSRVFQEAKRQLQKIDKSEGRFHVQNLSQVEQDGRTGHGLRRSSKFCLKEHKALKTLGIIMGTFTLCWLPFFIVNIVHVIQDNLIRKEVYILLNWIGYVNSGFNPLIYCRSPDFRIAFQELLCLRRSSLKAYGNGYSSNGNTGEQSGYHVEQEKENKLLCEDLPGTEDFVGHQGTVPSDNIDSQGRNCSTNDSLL

[11] = Trypanosoma cruzi growth suppression in host cells – NIH3T3 host cells, beta-gal luminescence, confirmation (AID 2044); assay type: functional, cell-based;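 further: intracellular parasites grown in NIH/3T3 mouse fibroblasts as host cells; luminescent beta-galactosidase reporter signal from transgenic T. cruzi replicating inside host cells; inhibitors lower the luminescence signal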
[12] = NIH3T3 cell viability loss – ATP luminescence, mouse fibroblasts, counter-screen, dose response (AID 2010); assay type: functional, cell-based;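 further: cells exposed to compound for about 90 hours before reading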
[13] = biological target: Protein disulfide-isomerase (Homo sapiens, UniProt P07237); experiment: inhibition of PDI-driven insulin aggregation – biochemical, turbidity, absorbance, cherry-picked samples, dose response (AID 602350); assay type: functional
Protein disulfide-isomerase, sequence (P07237 whole entry): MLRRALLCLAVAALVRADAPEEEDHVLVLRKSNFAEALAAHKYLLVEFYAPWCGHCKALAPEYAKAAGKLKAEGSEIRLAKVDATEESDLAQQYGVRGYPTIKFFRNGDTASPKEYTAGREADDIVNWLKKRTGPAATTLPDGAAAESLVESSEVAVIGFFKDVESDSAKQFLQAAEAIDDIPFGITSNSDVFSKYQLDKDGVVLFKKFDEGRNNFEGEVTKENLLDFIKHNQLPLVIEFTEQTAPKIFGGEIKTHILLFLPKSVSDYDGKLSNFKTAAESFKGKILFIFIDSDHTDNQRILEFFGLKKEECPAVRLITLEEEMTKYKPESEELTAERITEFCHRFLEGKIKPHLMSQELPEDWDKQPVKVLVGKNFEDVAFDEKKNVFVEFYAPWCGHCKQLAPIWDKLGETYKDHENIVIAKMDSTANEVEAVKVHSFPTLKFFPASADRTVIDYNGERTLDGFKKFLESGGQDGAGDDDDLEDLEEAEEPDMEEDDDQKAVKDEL

[14] = test system: BJ; experiment: growth inhibition of engineered Ras-driven BJ cells – cell-based, alamar blue fluorescence, cherrypicked samples, dose response (AID 2631); assay type: functional; conditions: Homo sapiens;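 further: confirmatory dose-response assay in RAS-dependent BJ fibroblasts engineered with TERT, LT and ST, with cytotoxicity read by fluorescence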

## Cc1cc(/C=C2\C(=O)NC(=O)N(c3ccc(Cl)cc3)C2=O)c(C)n1-c1sc2c(c1C#N)CCCC2
[1]
  IC50: 14.7 µM (active)
[2]
  IC50: 17.2 µM (active)
[3]
  IC50: 10.8 µM (active)
[4]
  IC50: 14.1 µM (active)
[5]
  IC50: 9.52 µM (active)

## O=C(NCc1ccccc1C(F)(F)F)c1cccc2c1C(=O)c1ccc(N3CCC(N4CCCCC4)CC3)cc1S2(=O)=O
[6]
  AC50: 21.2 µM (active)
[7]
  IC50: 5.89 µM (active)
[8]
  IC50: 8.71 µM (active)
[9]
  AC50: 9.77 µM (active)

## CCN(c1ccc2c(c1)OCO2)S(=O)(=O)c1cc(Br)cc2c1N(C(C)=O)CC2
[10]
  EC50: 10.5 µM (inactive)
[11]
  EC50: 0.891 µM (active)
[12]
  EC50: > 60 µM (not active)

## CCN1C(=O)C2C(c3ccccc3F)NC(Cc3ccc(O)cc3)(C(=O)OC)C2C1=O (centres undefined)
[13]
  AC50: 10.2 µM (active)

## CCC(C)C(=O)OCC1(c2ccc(C)cc2OC(=O)C(C)C)CO1 (centres undefined)
[14]
  EC50: 8.58 µM (active)
